According to US11324757B2, “Pharmaceutical composition for treatment of increased intraocular pressure” (NOVALIQ GMBH, priority 2010, dated 2022):
Values joined by “and” are separate entries in the source; they are usually repeats but may differ in a detail not shown here. Equal values may be shown once. Read-outs that look alike come from different tables or passages of the source.

Key:
[1] = Droplet size (weight and volume) from three droppers; format: physicochemical; conditions: 25° C.; for droplet volume, Glass pipette / droplet weight, Glass pipette: 2 mL glass Pasteur pipette; for droplet volume, Glass pipette / droplet volume, Injection needle / droplet volume, Eye dropper: calculated from weight; for droplet weight, Glass pipette / droplet weight, Injection needle / droplet weight, Eye dropper: mean ± SD of 10; for droplet volume, Injection needle / droplet weight, Injection needle: 20 G injection needle; for droplet volume, Eye dropper / droplet weight, Eye dropper: dropper of commercial eye drops (Hylo-Vision)
Description: The droplet size of selected SFA's in terms of weight and volume of droplets from three droppers was determined and compared to that of purified water. The devices used for dispensing the droplets were (a) a 2 mL Pasteur pipette (wall thickness 0.53 mm; external tip diameter: 1.50 mm; length: 150 mm) made of glass, (b) a 20 G (0.9 mm×50 mm) injection needle, and (c) a dropper from a commercial eye drops product (Hylo-Vision). The droplet weights were measured at 25° C. using a laboratory balance; the volumes were calculated. Each test was performed 10 times.

[2] = Contact angle (wetting) on compressed drug tablets
[3] = typical values for comparison; water at room temperature (RT); cited from earlier work
Refractive index = format: physicochemical; conditions: selected SFA's, neat
C. albicans (ATCC 10231) = assay: Antimicrobial preservative effectiveness test (USP 32 <51>); format: cell-based, Candida albicans; conditions: for cfu/mL 0 h / cfu/mL 24 h / cfu/mL 48 h: approx. 22.5° C.
Description: (§1) An antimicrobial preservative effectiveness test in analogy to that of USP 32 <51> was carried out. Sample vials comprising […] or F6H8, respectively, were inoculated with Escherichia coli, Pseudomonas aeruginosa, Staphylococcus aureus, Candida albicans and Aspergillus niger and incubated at approx. 22.5° C.

S. aureus (ATCC 6538) = assay: as above; format: cell-based, Staphylococcus aureus; conditions: for cfu/mL 0 h / cfu/mL 24 h / cfu/mL 48 h: approx. 22.5° C.
Description: as §1

A. niger (ATCC 16404) = assay: as above; format: cell-based, Aspergillus niger; conditions: for cfu/mL 0 h / cfu/mL 24 h / cfu/mL 48 h / cfu/mL 6 d: approx. 22.5° C.
Description: as §1

rabbit eyes (cornea) [4] = tested on: rabbit eyes (cornea)
Description: (§2) The physiological tolerability of this solution was evaluated in an ex-vivo eye irritation test (EVEIT) using rabbit eyes taken from freshly sacrificed animals. The eyes were fastened in chambers coupled micropump systems which continuously supplied the eyes with cultivation medium (Minimal Essential Medium, MEM T031-OS) without fetal calf serum. The vitality of the eyes was monitored by regularly measuring the concentration of lactate and glucose in the chamber eluate. The corneal surface of the eyes was damaged by abrasion, using a dental ceramic abrasive (638XF, Meisinger). For each eye, four lesions of 3.0 to 4.5 mm^2 were prepared.
(§3) To evaluate the effect of F4H5 and F4H5 with 1 wt.-% ethanol on the cornea, an amount of approx. 0.25 to 0.50 μl of the respective test substance was dropped onto the centre of a cornea once every hour over a period of 12 hours, followed by a 12 hour resting period in which the cornea was submersed in culture medium to simulate a closed lid during a night phase. In addition, an aqueous solution of hyaluronic acid (0.1 wt.-%) was used as reference (hyaluronic acid is know to enhance the restoration of the corneal surface after damage), culture medium was used as control, and aqueous benzalkonium chloride solution (0.01 wt.-%) was used as negative control. Each test was performed over a period of 3 days. The effects were observed by optical coherence tomography (OCT), by digitally determining the dimensions of the lesions after staining with fluorescein, and finally by a histological evaluation of the corneal epithelium and endothelium at the end of each experiment.
(§4) Each of the two vehicles was tested in two separate runs.

[5] = tested on: P. aeruginosa (ATCC 9027); assay: Antimicrobial preservative effectiveness test (USP 32 <51>); format: cell-based, Pseudomonas aeruginosa; conditions: for cfu/mL 0 h / cfu/mL 24 h / cfu/mL 48 h: approx. 22.5° C.
Description: as §1

E. coli (ATCC 8739) = assay: as above; format: cell-based, Escherichia coli; conditions: for cfu/mL 0 h / cfu/mL 24 h / cfu/mL 48 h: approx. 22.5° C.
Description: as §1

rabbit eyes (cornea) [6] = assay: Ex-vivo eye irritation test (EVEIT), corneal lesions by abrasion
Description: as §2, §3, §4

[7] = descriptive term; cited from earlier work
[8] = Solubility of latanoprost in F4H5/ethanol by HPLC; format: physicochemical; conditions: F4H5/ethanol mixture (99:1 by weight), organic solvent or mixture, thermodynamic from solid; in mixture of F4H5 and ethanol (ratio 99:1 by weight)
Description: In a separate experiment, the solubility of latanoprost in a mixture of F4H5 and ethanol (ratio 99:1 by weight) was determined by HPLC according to Ph.Eur.2.2.29 after rotation evaporation of the solvent methyl acetate in vacuo, addition of the solvent under examination of the residue and determination of the dissolved amount.

[9] = on fenofibrate tablet (150 mg, 15-20 kN, 13 mm)
[10] = on trospium chloride tablet (150 mg, 15-20 kN, 13 mm)

## O [Water, reference compound]
[1]
  droplet volume, Glass pipette: 31.3 ± 1.4 µL
  droplet weight, Glass pipette: 31.2 ± 1.4 mg
  droplet volume, Injection needle: 11.1 ± 0.9 µL
  droplet weight, Injection needle: 11.0 ± 0.9 mg
  droplet volume, Eye dropper: 36.1 ± 2.2 µL
  droplet weight, Eye dropper: 36.0 ± 2.2 mg
[2]; [9]
  contact angle: 92.5 °
[3]
  Refractive index: 1.333

## CCCCCCCC(F)(F)C(F)(F)C(F)(F)C(F)(F)F [Example F4H7]
Refractive index
  Refractive index: 1,3357

## CCCCCC(F)(F)C(F)(F)C(F)(F)C(F)(F)F [Example F4H5]
C. albicans (ATCC 10231)
  cfu/mL 0 h: 1 500 cfu/mL
  Change in log steps 24 h: ≤−1.2 log steps
  cfu/mL 24 h: <100 cfu/mL
  Change in log steps 48 h: ≤−1.1 log steps
  cfu/mL 48 h: <100 cfu/mL
S. aureus (ATCC 6538)
  cfu/mL 0 h: 2 900 cfu/mL
  Change in log steps 24 h: ≤−1.4 log steps
  cfu/mL 24 h: <100 cfu/mL
  Change in log steps 48 h: ≤−1.4 log steps
  cfu/mL 48 h: <100 cfu/mL
A. niger (ATCC 16404)
  cfu/mL 0 h: 3 000 cfu/mL
  Change in log steps 24 h: ≤−1.4 log steps
  cfu/mL 24 h: <100 cfu/mL
  Change in log steps 48 h: ≤−1.2 log steps
  cfu/mL 48 h: <100 cfu/mL
  Change in log steps 6 d: ≤−1.2 log steps
  cfu/mL 6 d: <100 cfu/mL
[1]
  droplet volume, Glass pipette: 4.7 ± 0.3 µL
  droplet weight, Glass pipette: 6.0 ± 0.4 mg
  droplet volume, Injection needle: 2.0 ± 0.3 µL
  droplet weight, Injection needle: 2.6 ± 0.4 mg
  droplet volume, Eye dropper: 9.6 ± 0.2 µL
  droplet weight, Eye dropper: 12.4 ± 0.2 mg
Refractive index
  Refractive index: 1,3204
[2]; [9]
  contact angle: not measurable
[2]; [10]
  contact angle: not measurable
Rabbit eyes (cornea) [4]
  morphological and histological evaluation of cornea: entirely clear at the end of the tests, with healthy and smooth surface morphology
  penetration into the cornea (OCT imaging): no indication of penetration
  tolerability by the eye: better tolerated than culture medium
[5]
  cfu/mL 0 h: 1 600 cfu/mL
  Change in log steps 24 h: ≤−1.2 log steps
  cfu/mL 24 h: <100 cfu/mL
  Change in log steps 48 h: ≤−1.2 log steps
  cfu/mL 48 h: <100 cfu/mL
E. coli (ATCC 8739)
  cfu/mL 0 h: 1 600 cfu/mL
  Change in log steps 24 h: ≤−1.2 log steps
  cfu/mL 24 h: <100 cfu/mL
  Change in log steps 48 h: ≤−1.2 log steps
  cfu/mL 48 h: <100 cfu/mL

## CCCCC(F)(F)C(F)(F)C(F)(F)C(F)(F)C(F)(F)C(F)(F)F [Example F6H4]
Refractive index
  Refractive index: 1,306

## CCCCCCCCCC(F)(F)C(F)(F)C(F)(F)C(F)(F)C(F)(F)C(F)(F)F [Example F6H9]
Refractive index
  Refractive index: 1,3494

## CCCCCCCC(F)(F)C(F)(F)C(F)(F)C(F)(F)C(F)(F)C(F)(F)F [Example F6H7]
Refractive index
  Refractive index: 1,3366

## CCC(F)(F)C(F)(F)C(F)(F)C(F)(F)C(F)(F)C(F)(F)F [Example F6H2]
Refractive index
  Refractive index: 1,295

## hyaluronic acid [HA]
Rabbit eyes (cornea) [6]; at end of test
  morphological and histological evaluation of cornea: entirely clear at the end of the tests, with healthy and smooth surface morphology
Rabbit eyes (cornea) [6]; before the test, separate runs
  Initial size of corneal lesions: 13.22 mm^2 and 16.03 mm^2 and 14.87 mm^2
Rabbit eyes (cornea) [6]; ex-vivo rabbit eye, 3 days, fluorescein staining
  healing of corneal lesions: Substantial healing
Rabbit eyes (cornea) [6]; final vs initial size, 3 days, separate runs
  Change of lesion size: −97.3% and −98.5% and −100%

## CCCCCCCCC(F)(F)C(F)(F)C(F)(F)C(F)(F)F [Example F4H8]
Refractive index
  Refractive index: 1,348

## CCCCCCC(F)(F)C(F)(F)C(F)(F)C(F)(F)F [Example F4H6]
Refractive index
  Refractive index: 1,334

## CC(C)OC(=O)CCCC=CCC1C(O)CC(O)C1C=CC(O)COc1cccc(C(F)(F)F)c1 (stereo not shown) [travoprost, propan-2-yl 7-[3,5-dihydroxy-2-[3-hydroxy-4-[3-(trifluoromethyl)phenoxy]-but-1-enyl]-cyclopentyl]hept-5-enoate]
[7]
  solubility in water: practically insoluble

## benzalkonium chloride [BAC, reference compound]
Rabbit eyes (cornea) [4]
  Final size of corneal lesions: >60 mm^2
  Initial size of corneal lesions: 16.05 mm^2
  healing of corneal lesions: rapid growth of the lesions
  morphological and histological evaluation of cornea: complete disintegration of the corneal epithelium

## CCCCCCCCC(F)(F)C(F)(F)C(F)(F)C(F)(F)C(F)(F)C(F)(F)F [Example F6H8]
C. albicans (ATCC 10231)
  cfu/mL 0 h: 1 500 cfu/mL
  Change in log steps 24 h: ≤−1.2 log steps
  cfu/mL 24 h: <100 cfu/mL
  Change in log steps 48 h: ≤−1.1 log steps
  cfu/mL 48 h: <100 cfu/mL
S. aureus (ATCC 6538)
  cfu/mL 0 h: 2 900 cfu/mL
  Change in log steps 24 h: ≤−1.4 log steps
  cfu/mL 24 h: <100 cfu/mL
  Change in log steps 48 h: ≤−1.4 log steps
  cfu/mL 48 h: <100 cfu/mL
A. niger (ATCC 16404)
  cfu/mL 0 h: 1 500 cfu/mL
  Change in log steps 24 h: ≤−1.2 log steps
  cfu/mL 24 h: <100 cfu/mL
  Change in log steps 48 h: ≤−1.2 log steps
  cfu/mL 48 h: <100 cfu/mL
  Change in log steps 6 d: ≤−1.2 log steps
  cfu/mL 6 d: <100 cfu/mL
[1]
  droplet volume, Glass pipette: 5.0 ± 0.4 µL
  droplet weight, Glass pipette: 6.6 ± 0.6 mg
  droplet volume, Injection needle: 2.5 ± 0.1 µL
  droplet weight, Injection needle: 3.4 ± 0.2 mg
  droplet volume, Eye dropper: 10.3 ± 0.3 µL
  droplet weight, Eye dropper: 13.7 ± 0.4 mg
Refractive index
  Refractive index: 1,3432
[2]; [9]
  contact angle: not measurable
[2]; [10]
  contact angle: not measurable
Rabbit eyes (cornea) [4]
  Change of lesion size: −100.0%
  Final size of corneal lesions: 0.00 mm^2
  healing of corneal lesions: all lesions healed fully
  morphological and histological evaluation of cornea: dense stromata with very few clefts and well-arranged keratocytes
[5]
  cfu/mL 0 h: 1 600 cfu/mL
  Change in log steps 24 h: ≤−1.2 log steps
  cfu/mL 24 h: <100 cfu/mL
  Change in log steps 48 h: ≤−1.2 log steps
  cfu/mL 48 h: <100 cfu/mL
E. coli (ATCC 8739)
  cfu/mL 0 h: 1 600 cfu/mL
  Change in log steps 24 h: ≤−1.2 log steps
  cfu/mL 24 h: <100 cfu/mL
  Change in log steps 48 h: ≤−1.2 log steps
  cfu/mL 48 h: <100 cfu/mL

## CC(C)OC(=O)CCC/C=C\C[C@@H]1[C@@H](CC[C@@H](O)CCc2ccccc2)[C@H](O)C[C@@H]1O [latanoprost, isopropyl-(Z)-7[(1R,2R,3R,5S)3,5-dihydroxy-2-[(3R)-3-hydroxy-5-phenylpentyl]cyclopentyl]-5-heptenoate]
[7]
  solubility in water: practically insoluble
[8]
  solubility: 57 µg/mL

## CCCCCCCC(=O)CC[C@@H]1[C@@H](C/C=C\CCCC(=O)O)[C@@H](O)C[C@H]1O [unoprostone]
[7]
  solubility in water: practically insoluble

## CCCCCCC(F)(F)C(F)(F)C(F)(F)C(F)(F)C(F)(F)C(F)(F)F [Example F6H6]
Refractive index
  Refractive index: 1,3224

## CCNC(=O)CCC/C=C\C[C@@H]1[C@@H](/C=C/[C@@H](O)CCc2ccccc2)[C@H](O)C[C@@H]1O [Bimatoprost, (Z)-7-[(1R,2R,3R,5S)-3,5-Dihydroxy-2-[(1E,3S)-3-hydroxy-5-phenyl-1-pentenyl]cyclopentyl]-N-ethyl-5-heptenamide]
[7]
  solubility in water: slightly soluble

## CCCCC(F)(F)C(F)(F)C(F)(F)C(F)(F)F [Example F4H4]
Refractive index
  Refractive index: 1,308
